One test relates to PANC-1 cells. Kind of test: CellTiter-Glo luminescent cell viability assay, PANC-1. The settings on record: Homo sapiens, PANC-1, 72 h, 72 h, mean ± SD, n = 2; for viability at 2.8 µM: read-out: Cell Viability (% of Control) 2.8 µM, PANC-1; for viability at 8.3 µM: read-out: Cell Viability (% of Control) 8.3 µM, PANC-1; for viability at 25 µM: read-out: Cell Viability (% of Control) 25 µM, PANC-1. On the technique in general: ATP-based viability assays read luminescence as a measure of living cells.

A further test has as its system PANC-1 and Fadu cells. Kind of test: CellTiter-Glo viability, statements covering both cancer cell lines. Type of test: cell-based, human. The settings on record: for viability at 25 µM: Homo sapiens, in either of the cancer cell lines, read-out: drop in viability at 25 µM.
In another test the test system is Fadu cells. Kind of test: CellTiter-Glo luminescent cell viability assay, Fadu. The settings on record: Homo sapiens, FaDu, 72 h, 72 h, mean ± SD, n = 2; for viability at 2.8 µM: read-out: Cell Viability (% of Control) 2.8 µM, Fadu; for viability at 8.3 µM: read-out: Cell Viability (% of Control) 8.3 µM, Fadu; for viability at 25 µM: read-out: Cell Viability (% of Control) 25 µM, Fadu.

Molecules are shown by their SMILES. Read-outs that look alike come from different tables or passages of the source.

As usually defined, the viability is a read-out of living cells in per cent, often relative to untreated cells. In the case of `NCC#Cc1cccc(CN2C(=O)C3=C(CCN(Cc4ccc(-n5cc(-c6ccccc6)nn5)cc4)C3)N3CCN=C23)c1` [2b], the viability at 2.8 µM with PANC-1 cells (first-set screening) is 107 ± 1%; in the test with PANC-1 cells (second-set screening), 113 ± 3%; in the test with Fadu cells (first-set screening) it was 102 ± 8%; with Fadu cells (second-set screening), 117 ± 7%. Also, the viability at 8.3 µM in the test on PANC-1 cells (first-set screening) came to 0%; in the test with PANC-1 cells (second-set screening) it was 0%; with Fadu cells (first-set screening), 0%; in the test on Fadu cells (second-set screening), 27 ± 12%. The viability at 25 µM was 0% in the test with PANC-1 cells (first-set screening); 0% in the test on PANC-1 cells (second-set screening); 0 to 1% with PANC-1 and Fadu cells; 0% with Fadu cells (first-set screening); 0% in the test on Fadu cells (second-set screening). Moreover, the “eradication of cancer cells at 8.3 µM” value in the test with PANC-1 and Fadu cells (8.3 µM, both PANC-1 and Fadu, first-set screening) is given as “practically complete eradication of both types of cancer cells”.

Take `NCC#Cc1ccc(CN2C(=O)C3=C(CCN(Cc4cccc(-n5cc(-c6ccccc6)nn5)c4)C3)N3CCN=C23)cc1` [3b]: the results for the viability at 2.8 µM in the test with PANC-1 cells (first-set screening) and in the test on Fadu cells (first-set screening) were 103 ± 8% and 103 ± 2%, respectively. In addition, the viability at 8.3 µM with PANC-1 cells (first-set screening) turned out to be 84 ± 2%; in the test with Fadu cells (first-set screening) it was 95 ± 3%. Also, the viability at 25 µM is 0% in the test on PANC-1 cells (first-set screening); 0 to 1% in the test on PANC-1 and Fadu cells; 22 ± 4% in the test on Fadu cells (first-set screening).

For the molecule `NCC#Cc1cccc(CN2C(=O)C3=C(CCN(Cc4cccc(-n5cc(-c6ccccc6)nn5)c4)C3)N3CCN=C23)c1` [4b], the viability at 2.8 µM is 87 ± 5% in the test on PANC-1 cells (first-set screening) and 76 ± 1% in the test with Fadu cells (first-set screening). For the same molecule, the viability at 8.3 µM came out at 70% with PANC-1 cells (first-set screening) and 34 ± 3% in the test with Fadu cells (first-set screening). In addition, the viability at 25 µM in the test with PANC-1 cells (first-set screening) is 0%; in the test with PANC-1 and Fadu cells, 0 to 1%; in the test on Fadu cells (first-set screening), 0%.

Source of the values: publication PMC11642016 (International Journal of Molecular Sciences, 2024).
